The target of this assay is bovine cardiac myofibrils (full-length cardiac myosin ATPase in the native sarcomere) (Bos taurus (Bovine), UniProt Q9BE39). Briefly: Skinned bovine cardiac myofibril ATPase assay (PK/LDH-coupled). Conditions: Ca2+ activating to 75% of maximal rate; for CDMF75 IC15: concentration giving 15% inhibition; for IC50: read-out: CDMF75 IC50. Format: biochemical. In a few lines: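 Triton-skinned bovine left-ventricle myofibrils (1 mg/mL) in PM 12 buffer (12 mM PIPES, 2 mM MgCl2, pH 6.8) with 50 μM ATP, 0.6 mM EGTA and CaCl2 set for 50% or 75% activation. Steady-state ATPase inhibition followed by PK/LDH-coupled NADH oxidation at 340 nm.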

In general, IC50 refers to the concentration needed to halve the response being measured.

Sequence of bovine cardiac myofibrils (full-length cardiac myosin ATPase in the native sarcomere) (Q9BE39 whole entry): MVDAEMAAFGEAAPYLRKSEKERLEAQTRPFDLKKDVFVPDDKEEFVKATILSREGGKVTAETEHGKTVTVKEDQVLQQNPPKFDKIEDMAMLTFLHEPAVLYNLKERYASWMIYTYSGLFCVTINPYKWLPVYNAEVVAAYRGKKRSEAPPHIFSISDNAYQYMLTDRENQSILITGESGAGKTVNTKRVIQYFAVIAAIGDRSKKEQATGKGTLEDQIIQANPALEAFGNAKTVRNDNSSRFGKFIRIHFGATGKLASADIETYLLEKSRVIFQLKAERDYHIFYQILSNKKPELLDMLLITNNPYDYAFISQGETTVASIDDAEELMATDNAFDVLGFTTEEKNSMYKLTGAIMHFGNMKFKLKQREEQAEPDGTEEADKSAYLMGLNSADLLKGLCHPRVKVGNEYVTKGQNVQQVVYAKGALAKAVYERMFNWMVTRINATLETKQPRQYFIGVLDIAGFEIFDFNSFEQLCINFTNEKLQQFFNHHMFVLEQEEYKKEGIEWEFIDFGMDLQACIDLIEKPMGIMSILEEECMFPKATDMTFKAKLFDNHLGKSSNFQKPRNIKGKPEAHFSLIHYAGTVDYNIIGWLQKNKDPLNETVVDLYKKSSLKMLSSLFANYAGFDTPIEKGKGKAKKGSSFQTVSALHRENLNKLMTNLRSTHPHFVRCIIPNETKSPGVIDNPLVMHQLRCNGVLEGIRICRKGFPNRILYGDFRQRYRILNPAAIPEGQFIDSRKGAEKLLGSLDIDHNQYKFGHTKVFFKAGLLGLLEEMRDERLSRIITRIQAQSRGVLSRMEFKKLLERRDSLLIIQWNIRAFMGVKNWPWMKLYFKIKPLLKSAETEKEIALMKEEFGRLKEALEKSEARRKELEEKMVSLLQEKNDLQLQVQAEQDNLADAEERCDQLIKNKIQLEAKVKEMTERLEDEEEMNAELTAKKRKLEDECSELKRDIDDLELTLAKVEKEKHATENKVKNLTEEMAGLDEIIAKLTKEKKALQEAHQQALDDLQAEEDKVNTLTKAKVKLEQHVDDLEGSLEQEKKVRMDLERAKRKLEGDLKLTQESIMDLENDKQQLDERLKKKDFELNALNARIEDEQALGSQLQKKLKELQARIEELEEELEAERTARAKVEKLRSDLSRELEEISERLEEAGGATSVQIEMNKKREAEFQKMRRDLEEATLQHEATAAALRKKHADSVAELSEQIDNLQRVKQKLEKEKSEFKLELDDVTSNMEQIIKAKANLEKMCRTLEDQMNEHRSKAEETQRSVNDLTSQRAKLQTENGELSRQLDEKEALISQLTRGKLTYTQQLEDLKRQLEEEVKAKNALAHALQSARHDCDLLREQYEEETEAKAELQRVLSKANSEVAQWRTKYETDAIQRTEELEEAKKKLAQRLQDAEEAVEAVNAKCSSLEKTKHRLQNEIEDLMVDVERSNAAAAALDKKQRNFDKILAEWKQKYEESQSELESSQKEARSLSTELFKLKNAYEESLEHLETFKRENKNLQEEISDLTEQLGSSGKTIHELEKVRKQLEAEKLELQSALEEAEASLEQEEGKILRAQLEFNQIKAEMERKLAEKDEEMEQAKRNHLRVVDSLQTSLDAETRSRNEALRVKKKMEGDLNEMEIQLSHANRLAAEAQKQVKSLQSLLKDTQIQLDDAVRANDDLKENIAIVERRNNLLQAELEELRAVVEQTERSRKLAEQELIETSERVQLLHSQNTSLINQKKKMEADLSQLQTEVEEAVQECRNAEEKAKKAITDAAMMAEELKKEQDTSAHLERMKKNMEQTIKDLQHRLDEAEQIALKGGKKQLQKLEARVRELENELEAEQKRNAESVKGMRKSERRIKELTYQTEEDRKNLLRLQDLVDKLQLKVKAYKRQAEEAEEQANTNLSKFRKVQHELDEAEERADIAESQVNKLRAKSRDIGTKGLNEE
Sequence of bovine cardiac myofibrils (full-length cardiac myosin ATPase in the native sarcomere) (P85100 whole entry partner): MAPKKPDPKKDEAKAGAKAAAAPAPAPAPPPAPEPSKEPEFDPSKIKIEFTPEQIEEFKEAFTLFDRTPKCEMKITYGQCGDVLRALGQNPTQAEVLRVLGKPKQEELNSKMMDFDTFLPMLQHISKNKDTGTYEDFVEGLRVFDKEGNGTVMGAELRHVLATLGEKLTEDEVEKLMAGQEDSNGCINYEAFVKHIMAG
Sequence of bovine cardiac myofibrils (full-length cardiac myosin ATPase in the native sarcomere) (Q3SZE5 whole entry partner): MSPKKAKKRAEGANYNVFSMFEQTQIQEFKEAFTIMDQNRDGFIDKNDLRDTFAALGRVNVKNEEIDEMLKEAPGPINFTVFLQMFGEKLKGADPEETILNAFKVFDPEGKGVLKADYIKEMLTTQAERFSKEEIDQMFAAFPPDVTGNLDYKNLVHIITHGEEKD

`CC(=O)N1CC[C@H]1C(=O)N[C@@H]1CCc2cc(-c3noc(C4CC4)n3)ccc21` [Compound 332, (S)-1-acetyl-N-((R)-5-(5-cyclopropyl-1,2,4-oxadiazol-3-yl)-2,3-dihydro-1H-inden-1-yl)azetidine-2-carboxamide]: the “CDMF75 IC15” value was 39.2 µM and the IC50 was above 39.2 µM.
Consider `Cc1cc(C(=O)NC2CCc3cc(-c4noc(C)n4)ccc32)on1` (stereo not shown) [Compound 34, 3-methyl-N-(5-(5-methyl-1,2,4-oxadiazol-3-yl)-2,3-dihydro-1H-inden-1-yl)isoxazole-5-carboxamide], for which the “CDMF75 IC15” value turned out to be 2.1 µM and the IC50 was 8.1 µM.
The like results for `CCc1nc(-c2ccc3c(c2)OC[C@H]3NC(=O)OC)no1` [Compound 349, methyl (S)-(6-(5-ethyl-1,2,4-oxadiazol-3-yl)-2,3-dihydrobenzofuran-3-yl)carbamate] were, in that order, 0.3 µM and 0.9 µM.
`COCc1nc(-c2ccc3c(c2)CC[C@H]3NC(=O)c2conc2C)no1` [Compound 689, (R)-N-(5-(5-(methoxymethyl)-1,2,4-oxadiazol-3-yl)-2,3-dihydro-1H-inden-1-yl)-3-methylisoxazole-4-carboxamide]: the “CDMF75 IC15” value turned out to be 0.6 µM and the IC50 is 2.1 µM.
As to `COCc1nc(-c2ccc3c(c2)CC[C@H]3NC(=O)c2cc(CO)ccn2)no1` [Compound 672, (R)-4-(hydroxymethyl)-N-(5-(5-(methoxymethyl)-1,2,4-oxadiazol-3-yl)-2,3-dihydro-1H-inden-1-yl)picolinamide], the “CDMF75 IC15” value turned out to be 3.2 µM and the IC50 was 13.7 µM.
On the same counts, the results for `CCc1cc(-c2ccc3c(c2)CC[C@H]3NC(=O)c2ccnc(C)c2)no1` [Compound 404, (R)-N-(5-(5-ethylisoxazol-3-yl)-2,3-dihydro-1H-inden-1-yl)-2-methylisonicotinamide] are 0.4 µM and 1.2 µM.
For the compound `Cc1noc(-c2ccc3c(c2)CC[C@H]3NC(=O)c2ccnc(C(F)F)c2)n1` [Compound 716, (R)-2-(difluoromethyl)-N-(5-(3-methyl-1,2,4-oxadiazol-5-yl)-2,3-dihydro-1H-inden-1-yl)isonicotinamide], the “CDMF75 IC15” value came to 1.4 µM and the IC50 is 5.9 µM.
The like results for `C[C@H](CO)c1nc(-c2ccc3c(c2)CC[C@H]3NC(=O)c2ccnn2C)no1` [Compound 497, N-((R)-5-(5-((R)-1-hydroxypropan-2-yl)-1,2,4-oxadiazol-3-yl)-2,3-dihydro-1H-inden-1-yl)-1-methyl-1H-pyrazole-5-carboxamide] were, in that order, 7.4 µM and 39.2 µM.
As for `[2H]C([2H])([2H])c1nc(-c2ccc3c(c2)CC[C@H]3NC(=O)c2cn[nH]c2)no1` [Compound 491, (R)-N-(5-(5-(methyl-d3)-1,2,4-oxadiazol-3-yl)-2,3-dihydro-1H-inden-1-yl)-1H-pyrazole-4-carboxamide], the “CDMF75 IC15” value came out at 1.0 µM and the IC50 was 3.7 µM.
On to `Cc1nn(C)cc1C(=O)N[C@@H]1COc2cc(-c3noc(C(F)F)n3)ccc21` [Compound 208, (S)-N-(6-(5-(difluoromethyl)-1,2,4-oxadiazol-3-yl)-2,3-dihydrobenzofuran-3-yl)-1,3-dimethyl-1H-pyrazole-4-carboxamide], for which the “CDMF75 IC15” value was determined as 0.5 µM and the IC50 stood at 1.6 µM.
For the compound `CC(C)c1nc(-c2ccc3c(c2)CC[C@H]3NC(=O)c2cn[nH]c2)no1` [Compound 488, (R)-N-(5-(5-isopropyl-1,2,4-oxadiazol-3-yl)-2,3-dihydro-1H-inden-1-yl)-1H-pyrazole-4-carboxamide], the “CDMF75 IC15” value was 1.1 µM and the IC50 came out at 4.3 µM.
For `COC(=O)N[C@@H]1CCc2cc(-c3noc(C(F)F)n3)ccc21` [Compound 282, methyl (R)-(5-(5-(difluoromethyl)-1,2,4-oxadiazol-3-yl)-2,3-dihydro-1H-inden-1-yl)carbamate], the “CDMF75 IC15” value was 0.5 µM and the IC50 came out at 1.9 µM.
For `O=C(N[C@@H]1CCc2cc(-c3noc(C4CC4)n3)ccc21)OCC1CC1` [Compound 326, cyclopropylmethyl (R)-(5-(5-cyclopropyl-1,2,4-oxadiazol-3-yl)-2,3-dihydro-1H-inden-1-yl)carbamate], the “CDMF75 IC15” value worked out at 0.6 µM and the IC50 turned out to be 2.4 µM.
In the case of `O=C(NC1CCc2cc(-c3noc(C(F)F)n3)ccc21)c1cncs1` (stereo not shown) [Compound 11, N-(5-(5-(difluoromethyl)-1,2,4-oxadiazol-3-yl)-2,3-dihydro-1H-inden-1-yl)thiazole-5-carboxamide], the “CDMF75 IC15” value came to 0.8 µM and the IC50 came out at 3.4 µM.
Regarding `CCc1nc(-c2ccc3c(c2)OCC3NC(=O)c2cc(C)nn2C)no1` (stereo not shown) [Compound 230, N-(6-(5-ethyl-1,2,4-oxadiazol-3-yl)-2,3-dihydrobenzofuran-3-yl)-1,3-dimethyl-1H-pyrazole-5-carboxamide], the “CDMF75 IC15” value worked out at 0.6 µM and the IC50 is 1.8 µM.
`Cc1cc(C(=O)NC2CCc3cc(-c4coc(C)n4)ccc32)ccn1` (stereo not shown) [Compound 145, 2-methyl-N-(5-(2-methyloxazol-4-yl)-2,3-dihydro-1H-inden-1-yl)isonicotinamide]: the “CDMF75 IC15” value came to 39.2 µM and the IC50 is above 39.2 µM.
Consider `CCc1nc(-c2ccc3c(c2)CC[C@H]3NC(=O)c2coc(COC)n2)no1` [Compound 467, (R)-N-(5-(5-ethyl-1,2,4-oxadiazol-3-yl)-2,3-dihydro-1H-inden-1-yl)-2-(methoxymethyl)oxazole-4-carboxamide], for which the “CDMF75 IC15” value is 2.1 µM and the IC50 was found to be 8.4 µM.
Turning to `CC(C)c1nc(-c2ccc3c(c2)CC[C@H]3NC(=O)c2nnn(Cc3ccccc3)n2)no1` [Compound 500, (R)-2-benzyl-N-(5-(5-isopropyl-1,2,4-oxadiazol-3-yl)-2,3-dihydro-1H-inden-1-yl)-2H-tetrazole-5-carboxamide], the “CDMF75 IC15” value came to 1.0 µM and the IC50 worked out at 6.5 µM.
For `CCn1nccc1C(=O)NC1CCc2cc(-c3noc(C(F)F)n3)ccc21` (stereo not shown) [Compound 29, N-(5-(5-(difluoromethyl)-1,2,4-oxadiazol-3-yl)-2,3-dihydro-1H-inden-1-yl)-1-ethyl-1H-pyrazole-5-carboxamide], the “CDMF75 IC15” value came to 1.2 µM and the IC50 was 5.3 µM.
`[2H]C([2H])([2H])c1noc(-c2ccc3c(c2)OC[C@H]3NC(=O)c2cnn(C)c2)n1` [Compound 311, (S)-1-methyl-N-(6-(3-(methyl-d3)-1,2,4-oxadiazol-5-yl)-2,3-dihydrobenzofuran-3-yl)-1H-pyrazole-4-carboxamide]: the “CDMF75 IC15” value was determined as 1.8 µM and the IC50 was 6.3 µM.
Take `CCc1nc(-c2ccc3c(c2)CC[C@H]3NC(=O)c2ccnc(C(F)F)c2)no1` [Compound 578, (R)-2-(difluoromethyl)-N-(5-(5-ethyl-1,2,4-oxadiazol-3-yl)-2,3-dihydro-1H-inden-1-yl)isonicotinamide]: the “CDMF75 IC15” value stood at 0.4 µM and the IC50 amounted to 1.2 µM.
For `CCc1nc(-c2ccc3c(c2)OC[C@H]3NC(=O)c2conc2C)no1` [Compound 340, (S)-N-(6-(5-ethyl-1,2,4-oxadiazol-3-yl)-2,3-dihydrobenzofuran-3-yl)-3-methylisoxazole-4-carboxamide], the “CDMF75 IC15” value turned out to be 0.3 µM and the IC50 was 0.7 µM.
Take `O=C(NC1CCc2cc(-c3noc(C(F)F)n3)ccc21)c1ccccc1` (stereo not shown) [Compound 4, N-(5-(5-(difluoromethyl)-1,2,4-oxadiazol-3-yl)-2,3-dihydro-1H-inden-1-yl)benzamide]: the “CDMF75 IC15” value stood at 0.43 µM and the IC50 worked out at 1.6 µM.
For `CCc1nc(-c2ccc3c(c2)CC[C@H]3NC(=O)OCC(F)F)no1` [Compound 333, 2,2-difluoroethyl (R)-(5-(5-ethyl-1,2,4-oxadiazol-3-yl)-2,3-dihydro-1H-inden-1-yl)carbamate], the “CDMF75 IC15” value is 0.3 µM and the IC50 turned out to be 0.9 µM.
`Cc1cc(C(=O)N[C@@H]2COc3cc(-c4cc(C)on4)ccc32)ccn1` [Compound 430, (S)-2-methyl-N-(6-(5-methylisoxazol-3-yl)-2,3-dihydrobenzofuran-3-yl)isonicotinamide]: the “CDMF75 IC15” value worked out at 1.0 µM and the IC50 is 3.2 µM.
Consider `CCc1nc(-c2ccc3c(c2)CC[C@H]3NC(=O)c2cn(CCO)nc2C)no1` [Compound 597, (R)-N-(5-(5-ethyl-1,2,4-oxadiazol-3-yl)-2,3-dihydro-1H-inden-1-yl)-1-(2-hydroxyethyl)-3-methyl-1H-pyrazole-4-carboxamide], for which the “CDMF75 IC15” value was found to be 0.5 µM and the IC50 was 1.9 µM.
On to `Cc1cc(-c2ccc3c(c2)CC[C@H]3NC(=O)c2ccnn2C)ncn1` [Compound 381, (R)-1-methyl-N-(5-(6-methylpyrimidin-4-yl)-2,3-dihydro-1H-inden-1-yl)-1H-pyrazole-5-carboxamide], for which the “CDMF75 IC15” value was 39.2 µM and the IC50 is above 39.2 µM.
With `O=C(NC1CCC1)N[C@@H]1CCc2cc(-c3noc(C(F)F)n3)ccc21` [Compound 297, (R)-1-cyclobutyl-3-(5-(5-(difluoromethyl)-1,2,4-oxadiazol-3-yl)-2,3-dihydro-1H-inden-1-yl)urea], the “CDMF75 IC15” value came out at 39.2 µM and the IC50 was above 39.2 µM.
On the same counts, the results for `Cc1ncoc1C(=O)N[C@@H]1CCc2cc(-c3noc(C(C)C)n3)ccc21` [Compound 393, (R)-N-(5-(5-isopropyl-1,2,4-oxadiazol-3-yl)-2,3-dihydro-1H-inden-1-yl)-4-methyloxazole-5-carboxamide] are 0.4 µM and 1.2 µM.

(Values after patent US12065436B2, “Cardiac sarcomere inhibitors” (Cytokinetics, Inc., priority 2018, dated 2024).)
